Measurements reported in ChEMBL document CHEMBL6120974, “Hydrazide-Based Class I Selective HDAC Inhibitors Completely Reverse Chemoresistance Synergistically in Platinum-Resistant Solid Cancer Cells” (J Med Chem, 2024).
In brackets after ≈: the same amount, converted by molar mass. Activity calls are given as the source filed them. No cut-off for these calls is given here.

What was measured:
[1] = biological target: T1, Protein deacetylase HDAC6 (Homo sapiens) (UniProt Q9UBN7); test: Inhibition of N-terminal GST-tagged full length recombinant human HDAC6 (1 to 1215 end residues) expressed in sf9 cells at > 3.33 uM using ZMAL (Z-Lys(Ac)-AMC as fluorogenic substrate preincubated with compound for 60 mins followed by substrate addition and measured after 90 mins by fluorescence based microplate reader analysis relative to control
T1 sequence (whole entry): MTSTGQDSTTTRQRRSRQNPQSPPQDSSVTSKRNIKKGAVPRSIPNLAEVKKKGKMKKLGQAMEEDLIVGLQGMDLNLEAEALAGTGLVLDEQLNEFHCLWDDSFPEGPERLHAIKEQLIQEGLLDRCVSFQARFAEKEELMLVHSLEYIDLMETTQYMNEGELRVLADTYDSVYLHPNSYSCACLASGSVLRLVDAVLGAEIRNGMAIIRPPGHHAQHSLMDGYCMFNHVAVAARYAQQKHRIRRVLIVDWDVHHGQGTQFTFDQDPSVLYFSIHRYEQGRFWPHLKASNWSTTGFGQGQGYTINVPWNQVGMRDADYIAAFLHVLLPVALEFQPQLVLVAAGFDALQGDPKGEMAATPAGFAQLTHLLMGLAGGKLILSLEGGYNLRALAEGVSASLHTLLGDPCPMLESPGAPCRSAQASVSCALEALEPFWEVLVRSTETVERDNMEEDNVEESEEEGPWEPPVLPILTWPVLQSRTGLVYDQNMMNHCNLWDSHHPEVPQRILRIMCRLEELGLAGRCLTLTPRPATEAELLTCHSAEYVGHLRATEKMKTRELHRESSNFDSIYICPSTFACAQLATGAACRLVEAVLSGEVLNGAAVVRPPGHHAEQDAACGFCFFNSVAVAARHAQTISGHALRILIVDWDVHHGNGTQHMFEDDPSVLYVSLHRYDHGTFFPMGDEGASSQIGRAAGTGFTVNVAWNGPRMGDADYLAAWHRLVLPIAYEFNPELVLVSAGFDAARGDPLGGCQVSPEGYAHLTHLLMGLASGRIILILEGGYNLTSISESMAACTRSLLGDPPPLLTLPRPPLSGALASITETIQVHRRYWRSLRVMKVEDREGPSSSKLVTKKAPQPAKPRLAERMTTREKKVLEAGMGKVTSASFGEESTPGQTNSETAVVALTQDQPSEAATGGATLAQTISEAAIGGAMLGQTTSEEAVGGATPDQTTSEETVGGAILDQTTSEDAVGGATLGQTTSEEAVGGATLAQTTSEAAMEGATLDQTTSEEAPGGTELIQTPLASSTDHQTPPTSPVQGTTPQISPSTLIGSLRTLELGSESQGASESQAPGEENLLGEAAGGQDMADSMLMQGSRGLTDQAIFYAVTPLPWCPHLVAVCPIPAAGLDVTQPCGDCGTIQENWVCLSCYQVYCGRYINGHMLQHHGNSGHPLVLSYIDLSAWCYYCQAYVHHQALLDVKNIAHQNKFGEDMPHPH

A2780 [2] = test: Induction of apoptosis in human A2780 cells assessed as increase in apoptotic nuclei at sub-G1 phase at 2 uM in presence of cisplatin at 16 uM preincubated with compound for 48 hrs prior to addition of cisplatin and measured after 24 hrs by flow cytometric analysis; type: functional, cell-based; details: time 72.0 hrs
Cal27CisR [3] = test: Induction of apoptosis in cisplatin resistant human Cal27CisR cells assessed as increase in apoptotic nuclei at sub-G1 phase at 0.316 uM in presence of cisplatin at 3 uM preincubated with compound for 48 hrs prior to addition of cisplatin and measured after 24 hrs by flow cytometric analysis; type: functional, cell-based; details: time 72.0 hrs
A2780cisR [4] = test: Induction of apoptosis in cisplatin resistant human A2780 cisR cells assessed as increase in Bcl-2 protein level at 2 uM in presence of cisplatin at 16 uM preincubated with compound for 48 hrs prior to addition of cisplatin and measured after 24 hrs by Immunoblotting analysis; type: functional, cell-based; details: time 72.0 hrs
Cal27CisR [5] = test: Induction of cell cycle arrest in cisplatin resistant human Cal27CisR cells assessed as increase in p21 expression at 0.316 uM incubated for 48 hrs by Western blotting analysis; type: functional, cell-based
A2780 [6] = test: Effect of Bcl-2 protein level in human A2780 cells at 0.75 uM incubated for 48 hrs by Immunoblotting analysis; type: functional, cell-based
A2780cisR [7] = test: Effect of Bcl-2 protein level in cisplatin resistant human A2780 cisR cells at 2 uM incubated for 48 hrs by Immunoblotting analysis; type: functional, cell-based
A2780 [8] = test: Induction of apoptosis in human A2780 cells assessed as increase in BIM expression at 0.75 uM in presence of cisplatin at 3.5 uM preincubated with compound for 48 hrs prior to addition of cisplatin and measured after 24 hrs by Immunoblotting analysis; type: functional, cell-based; details: time 72.0 hrs
A2780cisR [9] = test: Induction of apoptosis in cisplatin resistant human A2780 cisR cells assessed as increase in apoptotic nuclei at sub-G1 phase at 2 uM in presence of cisplatin at 16 uM preincubated with compound for 48 hrs prior to addition of cisplatin and measured after 24 hrs by flow cytometric analysis; type: functional, cell-based; details: time 72.0 hrs
cells [10] = details: Homo sapiens, Cal27CisR
cells [11] = details: Homo sapiens, CAL-27
[12] = Lipophilicity, logD of the compound in 1-octanol/PBS buffer at pH 7.4 by HPLC/UV analysis; type: physicochemical; details: 1-octanol/PBS buffer, read-out: logD
[13] = Solubility of the compound in PBS buffer at pH 7.4 incubated for 72 hrs by HPLC/UV analysis; type: physicochemical
Cal27CisR [14] = test: Induction of apoptosis in cisplatin resistant human Cal27CisR cells assessed as decrease in Bcl-2 expression at 0.316 uM incubated for 24 to 72 hrs by Immunoblotting analysis; type: functional, cell-based; details: time 24-72 hrs
Cal27CisR [15] = test: Induction of apoptosis in cisplatin resistant human Cal27CisR cells assessed as decrease in Bcl-2 expression at 0.316 uM in presence of cisplatin at 16.5 uM preincubated with compound for 24 to 72 hrs prior to addition of cisplatin and measured after 24 hrs by Immunoblotting analysis; type: functional, cell-based; details: time 48-96 hrs
Cal27CisR [16] = test: Induction of apoptosis in cisplatin resistant human Cal27CisR cells assessed as decrease in survivin expression at 0.316 uM incubated for 24 to 72 hrs by Immunoblotting analysis; type: functional, cell-based; details: time 24-72 hrs
Cal27CisR [17] = test: Induction of apoptosis in cisplatin resistant human Cal27CisR cells assessed as decrease in BIM expression at 0.316 uM in presence of cisplatin at 16.5 uM preincubated with compound for 24 to 72 hrs prior to addition of cisplatin and measured after 24 hrs by Immunoblotting analysis; type: functional, cell-based; details: time 48-96 hrs
Cal27CisR [18] = test: Induction of apoptosis in cisplatin resistant human Cal27CisR cells assessed as decrease in BAX expression at 0.316 uM incubated for 24 to 72 hrs by Immunoblotting analysis; type: functional, cell-based; details: time 24-72 hrs
Cal27CisR [19] = test: Induction of apoptosis in cisplatin resistant human Cal27CisR cells assessed as decrease in BAX expression at 0.316 uM in presence of cisplatin at 16.5 uM preincubated with compound for 24 to 72 hrs prior to addition of cisplatin and measured after 24 hrs by Immunoblotting analysis; type: functional, cell-based; details: time 48-96 hrs

inhibition [1] [%]	IC50 (cells [10]) [µM]	IC50 (cells [11]) [µM]	logD [12]	solubility at 72 h [13] [mg/mL]	Structure (SMILES)	Activity (A2780 [2])	Activity (Cal27CisR [3])	Activity (A2780cisR [4])	Activity (Cal27CisR [5])	Activity (A2780 [6])	Activity (A2780cisR [7])	Activity (A2780 [8])	Activity (A2780cisR [9])	Activity (Cal27CisR [14])	Activity (Cal27CisR [15])	Activity (Cal27CisR [16])	Activity (Cal27CisR [17])	Activity (Cal27CisR [18])	Activity (Cal27CisR [19])
< 25	0.156	1.02	–	–	CCCCNNC(=O)c1ccc(CN(CC(=O)NCc2ccccc2)C(=O)c2ccc(N(C)C)cc2)cc1	inactive	Active	Active	Active	inactive	inactive	inactive	inactive	–	–	–	–	–	–
–	0.155	1.02	3.76	0.0168 (≈ 33.5 µM)	CCCNNC(=O)c1ccc(CN(CC(=O)NCc2ccccc2)C(=O)c2ccc(N(C)C)cc2)cc1	inactive	Active	Active	Active	–	–	inactive	inactive	inactive	Active	inactive	Active	inactive	Active
